In US8143263B2, “Therapeutic agents” (Astrazeneca AB, priority 2008, dated 2012):

Biological target: T1, recombinant human pancreatic GLK (Homo sapiens, UniProt P35557)
T1 sequence (P35557 1-465): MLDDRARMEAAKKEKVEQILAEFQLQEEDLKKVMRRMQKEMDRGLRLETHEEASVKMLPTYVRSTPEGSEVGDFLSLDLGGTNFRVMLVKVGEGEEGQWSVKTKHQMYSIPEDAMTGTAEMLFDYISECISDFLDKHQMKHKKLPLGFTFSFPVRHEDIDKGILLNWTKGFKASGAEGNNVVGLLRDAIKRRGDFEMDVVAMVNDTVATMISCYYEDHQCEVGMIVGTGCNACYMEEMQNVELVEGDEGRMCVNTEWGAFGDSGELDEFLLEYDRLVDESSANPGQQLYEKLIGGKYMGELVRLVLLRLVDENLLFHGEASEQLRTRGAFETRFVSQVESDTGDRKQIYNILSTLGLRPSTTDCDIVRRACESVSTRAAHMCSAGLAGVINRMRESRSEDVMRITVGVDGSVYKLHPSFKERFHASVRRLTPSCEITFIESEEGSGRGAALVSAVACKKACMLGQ
Assay: biochemical

| Compound | EC50 |
| --- | --- |
| CCOC[C@H](Oc1ncnc2c1cnn2-c1nccn1C)C(=O)Nc1ccc(Cl)cn1 [Example 210, (2S)—N-(5-chloropyridin-2-yl)-3-ethoxy-2-(1-(1-methyl-1H-imidazol-2-yl)-1H-pyrazolo[3,4-d]pyrimidin-4-yloxy)propanamide] | 1200 nM |
| Cc1cnc(NC(=O)[C@H](CCO)Oc2ncnc3c2cnn3-c2ncccc2Cl)cn1 [Example 143a, (2S)-2-[1-(3-chloro-2-pyridyl)pyrazolo[4,5-e]pyrimidin-4-yl]oxy-4-hydroxy-N-(5-methylpyrazin-2-yl)butanamide] | 2600 nM |
| COCCOCCC(Sc1ncnc2c1cnn2C(C)C)C(=O)Nc1nc(C)cs1 (stereo not shown) [Example 57, 2-[(1-Isopropyl-1H-pyrazolo[3,4-d]pyrimidin-4-yl)thio]-4-(2-methoxyethoxy)-N-(4-methyl-1,3-thiazol-2-yl)butanamide] | 30000 nM |
| COCCC(Oc1ncnc2c1cnn2-c1ccccc1OC)C(=O)Nc1ccc(C)cn1 (stereo not shown) [Example 22, 4-Methoxy-2-{[1-(2-methoxyphenyl)-1H-pyrazolo[3,4-d]pyrimidin-4-yl]oxy}-N-(5-methylpyridin-2-yl)butanamide] | 190 nM |
| O=C(Nc1ccccn1)[C@H](COCCO)Oc1ncnc2c1cnn2-c1ccccc1Cl [Example 201, (2S)-2-(1-(2-chlorophenyl)-1H-pyrazolo[3,4-d]pyrimidin-4-yloxy)-3-(2-hydroxyethoxy)-N-(pyridin-2-yl)propanamide] | 650 nM |
| CCOC[C@H](Oc1ncnc2c1cnn2-c1ccccc1C(F)(F)F)C(=O)Nc1ccc(C#N)cn1 [Example 132, (2S)—N-(5-cyanopyridin-2-yl)-3-ethoxy-2-[1-[2-(trifluoromethyl)phenyl]pyrazolo[4,5-e]pyrimidin-4-yl]oxypropanamide] | 470 nM |
| Cc1c(C#N)cccc1-n1ncc2c(O[C@@H](COCCO)C(=O)Nc3ccc(C#N)cn3)ncnc21 [Example 207, (2S)-2-(1-(3-cyano-2-methylphenyl)-1H-pyrazolo[3,4-d]pyrimidin-4-yloxy)-N-(5-cyanopyridin-2-yl)-3-(2-hydroxyethoxy)propanamide] | 5000 nM |
| N#Cc1cccc(Cl)c1-n1ncc2c(O[C@@H](CN3CC(O)C3)C(=O)Nc3ccc(Cl)cn3)ncnc21 [Example 240, (2S)-2-[1-(2-chloro-6-cyano-phenyl)pyrazolo[3,4-d]pyrimidin-4-yl]oxy-N-(5-chloro-2-pyridyl)-3-(3-hydroxyazetidin-1-yl)propanamide] | 450 nM |
| Cc1cnc(NC(=O)[C@H](COC2CCC2)Oc2ncnc3c2cnn3-c2ncccc2C(F)(F)F)cn1 [Example 137, (2S)-3-cyclobutyloxy-N-(5-methylpyrazin-2-yl)-2-[1-[3-(trifluoromethyl)pyridin-2-yl]pyrazolo[4,5-e]pyrimidin-4-yl]oxypropanamide] | 350 nM |
| Cc1ccc(NC(=O)[C@H](COC(C)C)Oc2ncnc3c2cnn3-c2ccccc2Cl)nc1 [Example 98, (2S)-2-(1-(2-chlorophenyl)-1H-pyrazolo[3,4-d]pyrimidin-4-yloxy)-3-isopropoxy-N-(5-methylpyridin-2-yl)propanamide] | 110 nM |
| CC(C)OCC(Oc1ncnc2c1cnn2-c1ccccc1Cl)C(=O)Nc1cnccn1 (stereo not shown) [Example 108, 2-[1-(2-Chlorophenyl)pyrazolo[4,5-e]pyrimidin-4-yl]oxy-3-isopropoxy-N-pyrazin-2-yl-propanamide] | 1300 nM |
| COC[C@H](C)OC[C@H](Oc1ncnc2c1cnn2-c1ccccc1Cl)C(=O)Nc1ccc(C)cn1 [Example 152, (2S)-2-(1-(2-chlorophenyl)-1H-pyrazolo[3,4-d]pyrimidin-4-yloxy)-3-((S)-1-methoxypropan-2-yloxy)-N-(5-methylpyridin-2-yl)propanamide] | 490 nM |
| O=C(Nc1ccccn1)[C@H](CN1CC(O)C1)Oc1ncnc2c1cnn2-c1c(Cl)cccc1Cl [Example 233, (2S)-2-[1-(2,6-dichlorophenyl)pyrazolo[3,4-d]pyrimidin-4-yl]oxy-3-(3-hydroxyazetidin-1-yl)-N-(2-pyridyl)propanamide] | 210 nM |
| COc1ccnc(NC(=O)[C@H](COC(C)C)Oc2ncnc3c2cnn3-c2ncccc2Cl)c1 [(2S)-2-[1-(3-chloro-2-pyridyl)pyrazolo[4,5-e]pyrimidin-4-yl]oxy-3-isopropoxy-N-(4-methoxy-2-pyridyl)propanamide] | > 100000 nM |
| COCC[C@@H](Oc1ncnc2c1cnn2-c1ccc(F)cc1F)C(=O)Nc1ccc(C)cn1 [Example 26, (R)-2-{[1-(2,4-Difluorophenyl)-1H-pyrazolo[3,4-d]pyrimidin-4-yl]oxy}-4-methoxy-N-(5-methylpyridin-2-yl)butanamide] | 35000 nM |
| CCCCC(Sc1ncnc2c1cnn2-c1ccccc1Cl)C(=O)Nc1nc(C)cs1 (stereo not shown) [Example 59, 2-{[1-(2-chlorophenyl)-1h-pyrazolo[3,4-]pyrimidin-4-yl]thio}-n-(4-methyl-1,3-thiazol-2-yl)hexanamide] | 650 nM |

| Compound | EC50 |
| --- | --- |
| CCOC[C@H](Oc1ncnc2c1cnn2-c1ncccc1C)C(=O)Nc1ccc(Cl)cn1 [Example 128a, (2S)—N-(5-chloropyridin-2-yl)-3-ethoxy-2-(1-(3-methylpyridin-2-yl)-1H-pyrazolo[3,4-d]pyrimidin-4-yloxy)propanamide] | 620 nM |
| C[C@H](CO)OC[C@H](Oc1ncnc2c1cnn2-c1c(Cl)cccc1C#N)C(=O)Nc1ccc(F)cn1 [Example 246, (2S)-2-[1-(2-chloro-6-cyano-phenyl)pyrazolo[3,4-d]pyrimidin-4-yl]oxy-N-(5-fluoro-2-pyridyl)-3-[(1R)-2-hydroxy-1-methyl-ethoxy]propanamide] | 220 nM |
| CC(C)OC[C@H](Oc1ncnc2c1cnn2-c1ncccc1Cl)C(=O)Nc1ccc(F)cn1 [Example 127l, (2S)-2-[1-(3-chloro-2-pyridyl)pyrazolo[4,5-e]pyrimidin-4-yl]oxy-N-(5-fluoro-2-pyridyl)-3-isopropoxy-propanamide] | 500 nM |
| Cc1ccc(NC(=O)[C@H](COC(C)C)Oc2ncnc3c2cnn3-c2ccccc2S(C)(=O)=O)nc1 [Example 129, (2S)-3-isopropoxy-N-(5-methylpyridin-2-yl)-2-(1-(2-(methylsulfonyl)phenyl)-1H-pyrazolo[3,4-d]pyrimidin-4-yloxy)propanamide] | 1300 nM |
| COCCC(Oc1ncnc2c1cnn2-c1ccccc1OC)C(=O)Nc1nc(C)cs1 (stereo not shown) [Example 35, 4-Methoxy-2-{[1-(2-methoxyphenyl)-1H-pyrazolo[3,4-d]pyrimidin-4-yl]oxy}-N-(4-methyl-1,3-thiazol-2-yl)butanamide] | 2100 nM |
| COc1ccccc1-n1ncc2c(O[C@@H](CCS(C)(=O)=O)C(=O)Nc3ccc(C)cn3)ncnc21 [Example 12, (S)-2-{[1-(2-methoxyphenyl)-1H-pyrazolo[3,4-d]pyrimidin-4-yl]oxy}-N-(5-methylpyridin-2-yl)-4-(methylsulfonyl)butanamide] | 2400 nM |
| CC(C)OCC(Oc1ncnc2c1cnn2-c1ccccc1Cl)C(=O)Nc1cc(C#N)ccn1 (stereo not shown) [2-[1-(2-chlorophenyl)pyrazolo[4,5-e]pyrimidin-4-yl]oxy-N-(4-cyano-2-pyridyl)-3-isopropoxy-propanamide] | > 100000 nM |
| Cc1cnc(NC(=O)[C@H](CO[C@H](C)CO)Oc2ncnc3c2cnn3-c2ccccc2Cl)cn1 [Example 247, (2S)-2-[1-(2-chlorophenyl)pyrazolo[3,4-d]pyrimidin-4-yl]oxy-3-[(1R)-2-hydroxy-1-methyl-ethoxy]-N-(5-methylpyrazin-2-yl)propanamide] | 590 nM |
| CCOC[C@H](Oc1ncnc2c1cnn2-c1ccncc1C)C(=O)Nc1ccc(Cl)cn1 [Example 128, (2S)—N-(5-Chloropyridin-2-yl)-3-ethoxy-2-[1-(3-methylpyridin-4-yl)pyrazolo[4,5-e]pyrimidin-4-yl]oxypropanamide] | 920 nM |
| Cc1cccnc1NC(=O)[C@H](COC(C)C)Oc1ncnc2c1cnn2-c1ncccc1Cl [(2S)-2-[1-(3-chloro-2-pyridyl)pyrazolo[4,5-e]pyrimidin-4-yl]oxy-3-isopropoxy-N-(3-methyl-2-pyridyl)propanamide] | > 100000 nM |
| Cc1ccc(C#N)cc1-n1ncc2c(O[C@@H](COCCO)C(=O)Nc3ccc(C#N)cn3)ncnc21 [Example 183, (2S)-2-(1-(5-cyano-2-methylphenyl)-1H-pyrazolo[3,4-d]pyrimidin-4-yloxy)-N-(5-cyanopyridin-2-yl)-3-(2-hydroxyethoxy)propanamide] | 7700 nM |
| Cc1ccc(NC(=O)[C@H](COCCO)Oc2ncnc3c2cnn3-c2cc(C#N)ccc2C)nc1 [Example 184, (2S)-2-(1-(5-cyano-2-methylphenyl)-1H-pyrazolo[3,4-d]pyrimidin-4-yloxy)-3-(2-hydroxyethoxy)-N-(5-methylpyridin-2-yl)propanamide] | 1500 nM |
| C[C@H](CO)OC[C@H](Oc1ncnc2c1cnn2-c1c(Cl)cccc1C#N)C(=O)Nc1ccccn1 [Example 231, (2S)-2-[1-(2-chloro-6-cyano-phenyl)pyrazolo[3,4-d]pyrimidin-4-yl]oxy-3-[(1R)-2-hydroxy-1-methyl-ethoxy]-N-(2-pyridyl)propanamide] | 260 nM |
| Cc1ccc(NC(=O)[C@@H](Oc2ncnc3c2cnn3-c2ccccc2Cl)C(C)C)nc1 [Example 84, (2S)-2-(1-(2-chlorophenyl)-1H-pyrazolo[3,4-d]pyrimidin-4-yloxy)-3-methyl-N-(5-methylpyridin-2-yl)butanamide] | 470 nM |
| CCC(C)C(Sc1ncnc2c1cnn2-c1ccccc1Cl)C(=O)Nc1ccc(C)cn1 (stereo not shown) [Example 56, 2-{[1-(2-chlorophenyl)-1H-pyrazolo[3,4-d]pyrimidin-4-yl]thio}-3-methyl-N-(5-methylpyridin-2-yl)pentanamide] | 3100 nM |
